Key:
[1] = biological target: T1, BTK enzyme (recombinant full-length BTK, hBTK) (Homo sapiens, UniProt Q06187); experiment: BTK enzyme activity assay, LANCE TR-FRET; format: biochemical; conditions: 50 pM hBTK, 2 μM biotin-A5-peptide, 25 μM ATP; 60 min compound & enzyme incubation; read-out: IC50 BTK activity value
T1 construct: recombinant protein from baculovirus-transfected Sf9 cells: full-length BTK, 6HIS-tag cleaved; 6HIS (cleaved yes); made in house; host or cells: baculovirus-transfected Sf9 cells

[2] = system: HeLa cells; experiment: [3H]Adenosine uptake functional cellular assay; format: cell-based; conditions: Homo sapiens, HeLa, accumulation of [3H]adenosine into HeLa cells; compound range 10 μM to […]; read-out: Adenosine uptake inhibition IC50
How it was run: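 Inhibition of adenosine uptake was measured in HeLa cells (ATCC CCL-2) by following accumulation of tritiated adenosine. Cells were kept overnight at 37° C. with 5% (v/v) CO2, then switched to 40 μL HBSS plus 5% (v/v) FBS. 20 μL of 500 nM [3H]adenosine was added, and uptake was counted on a Topcount NXT reader.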

T1 sequence (Q06187 whole entry): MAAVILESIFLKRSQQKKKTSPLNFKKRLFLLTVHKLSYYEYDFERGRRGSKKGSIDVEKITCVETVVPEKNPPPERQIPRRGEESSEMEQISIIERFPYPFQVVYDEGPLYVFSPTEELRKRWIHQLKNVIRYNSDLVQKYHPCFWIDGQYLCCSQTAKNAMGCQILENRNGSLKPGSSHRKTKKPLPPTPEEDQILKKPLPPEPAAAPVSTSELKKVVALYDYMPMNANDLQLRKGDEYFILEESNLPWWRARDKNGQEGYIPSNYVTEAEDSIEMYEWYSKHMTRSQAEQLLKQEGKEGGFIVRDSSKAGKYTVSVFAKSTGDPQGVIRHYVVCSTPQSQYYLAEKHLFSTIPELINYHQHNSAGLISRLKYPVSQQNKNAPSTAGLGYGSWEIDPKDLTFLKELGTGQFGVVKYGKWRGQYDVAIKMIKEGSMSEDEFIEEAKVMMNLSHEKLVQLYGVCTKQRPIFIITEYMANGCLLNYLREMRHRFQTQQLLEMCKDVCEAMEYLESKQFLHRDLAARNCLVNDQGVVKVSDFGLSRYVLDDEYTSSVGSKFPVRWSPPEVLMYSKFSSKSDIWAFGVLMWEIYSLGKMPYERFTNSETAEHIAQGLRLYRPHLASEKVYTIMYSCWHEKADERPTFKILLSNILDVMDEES

IC50 [1] [nM] | IC50 [2] [nM] | SMILES
2.2 | 310 | Cn1nc(NC(=O)c2ccc(-c3nc([C@@H]4CC[C@H]5CCC(=O)N5C4)n4ccnc(N)c34)c(Cl)c2)cc1C(F)(F)F [Example 190, 4-{8-amino-3-[(6R,8aS)-3-oxooctahydroindolizin-6-yl]imidazo[1,5-a]pyrazin-1-yl}-3-chloro-N-[1-methyl-5-(trifluoromethyl)-1H-pyrazol-3-yl]benzamide]
1.9 | 994 | Cn1nc(NC(=O)c2ccc(-c3nc([C@@H]4CC[C@H]5CCC(=O)N5C4)n4c(Cl)cnc(N)c34)c(Cl)c2)cc1C(F)(F)F [Example 191, 4-{8-amino-5-chloro-3-[(6R,8aS)-3-oxooctahydroindolizin-6-yl]imidazo[1,5-a]pyrazin-1-yl}-3-chloro-N-[1-methyl-5-(trifluoromethyl)-1H-pyrazol-3-yl]benzamide]
24.6 | 408 | Cn1nc(NC(=O)c2cc(Cl)c(-c3nc([C@@H]4CC[C@H]5CCC(=O)N5C4)n4c(Cl)cnc(N)c34)cc2F)cc1C(F)(F)F [Example 192, 4-{8-amino-5-chloro-3-[(6R,8aS)-3-oxooctahydroindolizin-6-yl]imidazo[1,5-a]pyrazin-1-yl}-5-chloro-2-fluoro-N-[1-methyl-5-(trifluoromethyl)-1H-pyrazol-3-yl]benzamide]
4.6 | 213 | Nc1nccn2c([C@@H]3CC[C@H]4CCC(=O)N4C3)nc(-c3cc(F)c(C(=O)Nc4cc(C(F)(F)F)ccn4)cc3Cl)c12 [Example 193, 4-{8-amino-3-[(6R,8aS)-3-oxooctahydroindolizin-6-yl]imidazo[1,5-a]pyrazin-1-yl}-5-chloro-2-fluoro-N-[4-(trifluoromethyl)pyridin-2-yl]benzamide]
0.39 | 226 | Nc1ncc(Cl)n2c([C@@H]3CC[C@H]4CCC(=O)N4C3)nc(-c3ccc(C(=O)Nc4cc(C(F)(F)F)ccn4)cc3Cl)c12 [Example 194, 4-{8-amino-5-chloro-3-[(6R,8aS)-3-oxooctahydroindolizin-6-yl]imidazo[1,5-a]pyrazin-1-yl}-3-chloro-N-[4-(trifluoromethyl)pyridin-2-yl]benzamide]
0.63 | 175 | Cc1cnc(NC(=O)c2ccc(-c3nc([C@@H]4CC[C@H]5CCC(=O)N5C4)n4ccnc(N)c34)c(Cl)c2)s1 [Example 195, 4-(8-amino-3-((6R,8aS)-3-oxooctahydroindolizin-6-yl)imidazo[1,5-a]pyrazin-1-yl)-3-chloro-N-(5-methylthiazol-2-yl)benzamide]
1.5 | 741 | Cc1cnc(NC(=O)c2ccc(-c3nc([C@@H]4CC[C@H]5CCC(=O)N5C4)n4c(Cl)cnc(N)c34)c(Cl)c2)s1 [Example 196, 4-(8-amino-5-chloro-3-((6R,8aS)-3-oxooctahydroindolizin-6-yl)imidazo[1,5-a]pyrazin-1-yl)-3-chloro-N-(5-methylthiazol-2-yl)benzamide]
7.8 | 199 | Cc1cc(C(=O)Nc2cc(C(F)(F)F)ccn2)c(F)cc1-c1nc([C@@H]2CC[C@H]3CCC(=O)N3C2)n2c(Cl)cnc(N)c12 [Example 197, 4-(8-amino-5-chloro-3-((6R,8aS)-3-oxooctahydroindolizin-6-yl)imidazo[1,5-a]pyrazin-1-yl)-2-fluoro-5-methyl-N-(4-(trifluoromethyl)pyridin-2-yl)benzamide]
8.2 | 252 | Cc1cc(C(=O)Nc2cc(C(F)(F)F)ccn2)c(F)cc1-c1nc([C@@H]2CC[C@H]3CCC(=O)N3C2)n2ccnc(N)c12 [Example 198, 4-(8-amino-3-((6R,8aS)-3-oxooctahydroindolizin-6-yl)imidazo[1,5-a]pyrazin-1-yl)-2-fluoro-5-methyl-N-(4-(trifluoromethyl)pyridin-2-yl)benzamide]
3.2 | 5890 | CCOCCOc1cc(C(=O)Nc2cc(C(F)(F)F)ccn2)ccc1-c1nc([C@@H]2CC[C@H]3CCC(=O)N3C2)n2ccnc(N)c12 [Example 201, 4-{8-amino-3-[(6R,8aS)-3-oxooctahydroindolizin-6-yl]imidazo[1,5-a]pyrazin-1-yl}-3-(2-ethoxyethoxy)-N-[4-(trifluoromethyl)pyridin-2-yl]benzamide]
5.2 | 6880 | COc1cc(C(=O)Nc2ncc(C)s2)ccc1-c1nc([C@@H]2CC[C@H]3CCC(=O)N3C2)n2ccnc(N)c12 [Example 202, 4-{8-amino-3-[(6R,8aS)-3-oxooctahydroindolizin-6-yl]imidazo[1,5-a]pyrazin-1-yl}-3-methoxy-N-(5-methyl-1,3-thiazol-2-yl)benzamide]
1.7 | 1730 | COc1cc(C(=O)Nc2ncc(C)s2)ccc1-c1nc([C@@H]2CC[C@H]3CCC(=O)N3C2)n2c(Cl)cnc(N)c12 [Example 203, 4-{8-amino-5-chloro-3-[(6R,8aS)-3-oxooctahydroindolizin-6-yl]imidazo[1,5-a]pyrazin-1-yl}-3-methoxy-N-(5-methyl-1,3-thiazol-2-yl)benzamide]
0.75 | 1390 | C#CCCOc1cc(C(=O)Nc2cc(C(F)(F)F)ccn2)ccc1-c1nc([C@@H]2CC[C@H]3CCC(=O)N3C2)n2ccnc(N)c12 [Example 204, 4-{8-amino-3-[(6R,8aS)-3-oxooctahydroindolizin-6-yl]imidazo[1,5-a]pyrazin-1-yl}-3-(but-3-yn-1-yloxy)-N-[4-(trifluoromethyl)pyridin-2-yl]benzamide]
1.2 | 2360 | CCOc1cc(C(=O)Nc2cc(C(F)(F)F)n(C)n2)ccc1-c1nc([C@@H]2CC[C@H]3CCC(=O)N3C2)n2c(C)cnc(N)c12 [Example 205, 4-{8-amino-5-methyl-3-[(6R,8aS)-3-oxooctahydroindolizin-6-yl]imidazo[1,5-a]pyrazin-1-yl}-3-ethoxy-N-[1-methyl-5-(trifluoromethyl)-1H-pyrazol-3-yl]benzamide]
0.72 | 1110 | CCOc1cc(C(=O)Nc2cc(C(F)(F)F)ccn2)ccc1-c1nc([C@@H]2CC[C@H]3CCC(=O)N3C2)n2c(C(F)(F)F)cnc(N)c12 [Example 206, 4-{8-amino-3-[(6R,8aS)-3-oxooctahydroindolizin-6-yl]-5-(trifluoromethyl)imidazo [1,5-a]pyrazin-1-yl}-3-ethoxy-N-[4-(trifluoromethyl)pyridin-2-yl]benzamide]
0.58 | 377 | CCc1ccnc(NC(=O)c2ccc(-c3nc([C@@H]4CC[C@H]5CCC(=O)N5C4)n4c(Cl)cnc(N)c34)c(OC)c2)c1 [Example 207, 4-{8-amino-5-chloro-3-[(6R,8aS)-3-oxooctahydroindolizin-6-yl]imidazo[1,5-a]pyrazin-1-yl}-N-(4-ethylpyridin-2-yl)-3-methoxybenzamide]
1.6 | 386 | COc1ccnc(NC(=O)c2ccc(-c3nc([C@@H]4CC[C@H]5CCC(=O)N5C4)n4c(Cl)cnc(N)c34)c(OC)c2)c1 [Example 208, 4-{8-amino-5-chloro-3-[(6R,8aS)-3-oxooctahydroindolizin-6-yl]imidazo[1,5-a]pyrazin-1-yl}-3-methoxy-N-(4-methoxypyridin-2-yl)benzamide]
0.41 | 582 | COc1cc(C(=O)Nc2cc(C3CCC3)ccn2)ccc1-c1nc([C@@H]2CC[C@H]3CCC(=O)N3C2)n2c(Cl)cnc(N)c12 [Example 209, 4-{8-amino-5-chloro-3-[(6R,8aS)-3-oxooctahydroindolizin-6-yl]imidazo[1,5-a]pyrazin-1-yl}-N-(4-cyclobutylpyridin-2-yl)-3-methoxybenzamide]
1.4 | 1120 | COc1cc(C(=O)Nc2ccc(C)cn2)ccc1-c1nc([C@@H]2CC[C@H]3CCC(=O)N3C2)n2c(Cl)cnc(N)c12 [Example 210, 4-{8-amino-5-chloro-3-[(6R,8aS)-3-oxooctahydroindolizin-6-yl]imidazo[1,5-a]pyrazin-1-yl}-3-methoxy-N-(5-methylpyridin-2-yl)benzamide]
9 | 269 | Nc1ncc(C(F)(F)F)n2c([C@@H]3CC[C@H]4CCC(=O)N4C3)nc(-c3ccc(C(=O)Nc4cc(C(F)(F)F)ccn4)cc3Cl)c12 [Example 211, 4-{8-amino-3-[(6R,8aS)-3-oxooctahydroindolizin-6-yl]-5-(trifluoromethyl)imidazo[1,5-a]pyrazin-1-yl}-3-chloro-N-[4-(trifluoromethyl)pyridin-2-yl]benzamide]
3.8 | 86.9 | Nc1ncc(C(F)(F)F)n2c([C@@H]3CC[C@H]4CCC(=O)N4C3)nc(-c3ccc(C(=O)Nc4cc(C5CC5)ccn4)cc3F)c12 [Example 212, 4-{8-amino-3-[(6R,8aS)-3-oxooctahydroindolizin-6-yl]-5-(trifluoromethyl)imidazo [1,5-a]pyrazin-1-yl}-N-(4-cyclopropylpyridin-2-yl)-3-fluorobenzamide]
2.7 | 699 | COc1cc(C(=O)Nc2cc(C(F)(F)F)ccn2)ccc1-c1nc([C@@H]2CC[C@H]3CCC(=O)N3C2)n2c(C(F)(F)F)cnc(N)c12 [Example 213, 4-{8-amino-3-[(6R,8aS)-3-oxooctahydroindolizin-6-yl]-5-(trifluoromethyl)imidazo[1,5-a]pyrazin-1-yl}-3-methoxy-N-[4-(trifluoromethyl)pyridin-2-yl]benzamide]
2.2 | 517 | Cc1cc(C(=O)Nc2cc(C(F)(F)F)ccn2)cc(F)c1-c1nc([C@@H]2CC[C@H]3CCC(=O)N3C2)n2ccnc(N)c12 [Example 214, 4-{8-amino-3-[(6R,8aS)-3-oxooctahydroindolizin-6-yl]imidazo[1,5-a]pyrazin-1-yl}-3-fluoro-5-methyl-N-[4-(trifluoromethyl)pyridin-2-yl]benzamide]

From US20140206681A1, “BTK INHIBITORS” (priority 2013, published 2014)
